Assay results published in the OligoGym collection.
Values joined by “and” are separate entries in the source; they are usually repeats but may differ in a detail not shown here. Identical values can stand only once. HELM strings list units from the 5' end as sugar, base in round brackets, then linkage (d deoxyribose, r ribose, m 2'-O-methyl, p phosphodiester). Strings are as the collection lists them, not checked against the first reports. ss, as = sense and antisense strand; [lna] = locked nucleic acid (LNA); [una] = unlocked nucleic acid; [s4r] = 4'-thioribose; [fl2r] = 2'-fluoro

conditions: siRNA
Further: test system not given here.

Substance	target mRNA knockdown
RNA1{[lna](A)p.r(U)p.r(C)p.r(U)p.r(G)p.r(A)p.r(A)p.r(G)p.r(A)p.r(A)p.r(G)p.r(G)p.r(A)p.r(G)p.r(A)p.r(A)p.r(A)p.r(A)p.r(A)p.[lna](T)p.[lna](T)}|RNA2{[lna](T)p.r(U)p.r(U)p.r(U)p.r(U)p.r(C)p.r(U)p.r(C)p.r(C)p.r(U)p.r(U)p.r(C)p.r(U)p.r(U)p.r(C)p.r(A)p.r(G)p.r(A)p.r(U)p.[lna](T)p.[lna](T)}$$$RNA1{StrandType:ss}|RNA2{StrandType:as}$	65% and 75%
RNA1{m(A)p.r(C)p.m(C)p.r(G)p.m(A)p.r(C)p.m(G)p.r(A)p.m(U)p.r(U)p.m(C)p.r(U)p.m(U)p.r(C)p.m(U)p.r(A)p.m(C)p.r(U)p.m(C)p.r(T)p.r(T)}|RNA2{r(G)p.r(A)p.r(G)p.r(U)p.r(A)p.r(G)p.r(A)p.r(A)p.r(G)p.r(A)p.r(A)p.r(U)p.r(C)p.r(G)p.r(U)p.r(C)p.r(G)p.r(G)p.r(U)p.r(T)p.r(T)}$$$RNA1{StrandType:ss}|RNA2{StrandType:as}$	42%
RNA1{r(A)p.r(G)p.r(A)p.r(A)p.r(G)p.m(U)p.r(A)p.r(C)p.m(C)p.r(A)p.r(G)p.r(G)p.r(A)p.r(G)p.m(G)p.r(C)p.r(G)p.r(U)p.r(U)p.r(T)p.r(T)}|RNA2{r(A)p.r(A)p.r(C)p.r(G)p.r(C)p.r(C)p.r(U)p.r(C)p.r(C)p.m(U)p.r(G)p.r(G)p.m(U)p.r(A)p.r(C)p.r(U)p.r(U)p.r(C)p.r(U)p.r(T)p.r(T)}$$$RNA1{StrandType:ss}|RNA2{StrandType:as}$	68%
RNA1{r(C)p.r(G)p.r(U)p.r(A)p.r(C)p.r(G)p.r(C)p.r(G)p.r(G)p.r(A)p.r(A)p.r(U)p.r(A)p.r(C)p.r(U)p.r(U)p.r(C)p.[s4r](G)p.[s4r](A)p.r(T)p.r(T)}|RNA2{r(U)p.r(C)p.r(G)p.r(A)p.r(A)p.r(G)p.r(U)p.r(A)p.r(U)p.r(U)p.r(C)p.r(C)p.r(G)p.r(C)p.r(G)p.r(U)p.r(A)p.r(C)p.r(G)p.r(T)p.r(T)}$$$RNA1{StrandType:ss}|RNA2{StrandType:as}$	95.4%
RNA1{[lna](A)p.r(U)p.r(C)p.r(U)p.r(G)p.r(A)p.r(A)p.r(G)p.r(A)p.r(A)p.r(G)p.r(G)p.r(A)p.r(G)p.r(A)p.r(A)p.r(A)p.r(A)p.r(A)p.[lna](T)p.[lna](T)}|RNA2{r(U)p.r(U)p.r(U)p.r(U)p.r(U)p.r(C)p.r(U)p.r(C)p.r(C)p.r(U)p.r(U)p.r(C)p.r(U)p.r(U)p.r(C)p.r(A)p.r(G)p.r(A)p.r(U)p.[lna](T)p.[lna](T)}$$$RNA1{StrandType:ss}|RNA2{StrandType:as}$	93% and 95%
RNA1{r(A)p.r(G)p.r(G)p.r(A)p.r(C)p.r(G)p.r(G)p.r(U)p.r(A)p.r(C)p.r(U)p.r(U)p.r(U)p.r(C)p.r(G)p.r(A)p.r(A)p.r(A)p.r(G)p.r(T)p.r(T)}|RNA2{r(C)p.r(U)p.r(U)p.r(U)p.r(C)p.r(G)p.r(A)p.r(A)p.r(A)p.r(G)p.r(U)p.m(A)p.r(C)p.r(C)p.r(G)p.r(U)p.r(C)p.r(C)p.r(U)p.r(T)p.r(T)}$$$RNA1{StrandType:ss}|RNA2{StrandType:as}$	46%
RNA1{r(G)p.r(U)p.r(A)p.r(U)p.r(G)p.r(A)p.r(C)p.r(C)p.r(G)p.r(A)p.r(C)p.r(U)p.r(A)p.r(C)p.r(G)p.r(C)p.r(G)p.r(U)p.r(A)p.r(T)p.r(T)}|RNA2{r(U)p.r(U)p.r(C)p.r(A)p.r(G)p.r(U)p.r(G)p.r(U)p.r(G)p.r(A)p.r(U)p.[una](G)p.r(A)p.r(C)p.r(A)p.r(C)p.r(U)p.r(U)p.r(G)p.r(T)p.r(T)}$$$RNA1{StrandType:ss}|RNA2{StrandType:as}$	59%
RNA1{m(A)p.r(A)p.m(A)p.r(G)p.m(G)p.r(G)p.m(G)p.r(A)p.m(G)p.r(U)p.m(U)p.r(G)p.m(C)p.r(U)p.m(G)p.r(G)p.m(A)p.r(A)p.m(G)p.r(T)p.r(T)}|RNA2{r(C)p.r(U)p.r(U)p.r(C)p.r(C)p.r(A)p.r(G)p.r(C)p.m(A)p.m(A)p.r(C)p.r(U)p.r(C)p.r(C)p.r(C)p.r(C)p.r(U)p.r(U)p.r(U)p.r(T)p.r(T)}$$$RNA1{StrandType:ss}|RNA2{StrandType:as}$	47%
RNA1{r(G)p.r(G)p.r(A)p.r(G)p.m(C)p.r(A)p.r(C)p.r(G)p.r(C)p.r(U)p.m(U)p.r(A)p.r(C)p.m(U)p.r(A)p.r(C)p.r(C)p.r(U)p.r(U)p.r(T)p.r(T)}|RNA2{r(A)p.r(A)p.r(G)p.r(G)p.m(U)p.r(A)p.r(G)p.m(U)p.r(A)p.r(A)p.r(G)p.r(C)p.r(G)p.m(U)p.r(G)p.r(C)p.r(U)p.r(C)p.r(C)p.r(T)p.r(T)}$$$RNA1{StrandType:ss}|RNA2{StrandType:as}$	68%
RNA1{[fl2r](A)p.r(G)p.[fl2r](A)p.r(C)p.[fl2r](U)p.r(A)p.[fl2r](A)p.r(G)p.[fl2r](C)p.r(C)p.[fl2r](C)p.r(A)p.[fl2r](A)p.r(A)p.[fl2r](A)p.r(G)p.[fl2r](G)p.r(G)p.[fl2r](C)p.r(T)p.r(T)}|RNA2{r(G)p.r(C)p.r(C)p.r(C)p.r(U)p.r(U)p.r(U)p.r(U)p.r(G)p.r(G)p.r(G)p.r(C)p.r(U)p.r(U)p.r(A)p.r(G)p.r(U)p.r(C)p.r(U)p.r(T)p.r(T)}$$$RNA1{StrandType:ss}|RNA2{StrandType:as}$	26%
RNA1{r(A)p.r(U)p.r(C)p.m(U)p.r(A)p.r(C)p.r(C)p.m(C)p.r(A)p.r(G)p.r(C)p.r(U)p.r(C)p.m(U)p.r(C)p.r(C)p.r(C)p.r(U)p.r(U)p.r(T)p.r(T)}|RNA2{r(A)p.r(A)p.r(G)p.r(G)p.r(G)p.r(A)p.r(G)p.r(A)p.r(G)p.r(C)p.m(U)p.r(G)p.r(G)p.r(G)p.m(U)p.r(A)p.r(G)p.r(A)p.r(U)p.r(T)p.r(T)}$$$RNA1{StrandType:ss}|RNA2{StrandType:as}$	75%
RNA1{m(C)p.r(G)p.m(G)p.r(A)p.m(U)p.r(C)p.m(U)p.r(A)p.m(C)p.r(A)p.m(C)p.r(C)p.m(U)p.r(U)p.m(C)p.r(A)p.m(A)p.r(G)p.m(A)p.r(T)p.r(T)}|RNA2{m(U)p.r(C)p.m(U)p.m(U)p.r(G)p.r(A)p.r(A)p.r(G)p.r(G)p.m(U)p.r(G)p.m(U)p.r(A)p.r(G)p.r(A)p.m(U)p.r(C)p.r(C)p.r(G)p.r(T)p.r(T)}$$$RNA1{StrandType:ss}|RNA2{StrandType:as}$	29%
RNA1{r(C)p.r(G)p.r(A)p.r(G)p.r(U)p.r(G)p.r(U)p.r(C)p.r(U)p.r(A)p.r(A)p.r(C)p.r(G)p.r(G)p.r(G)p.r(A)p.r(G)p.r(C)p.r(C)p.r(T)p.r(T)}|RNA2{r(G)p.r(G)p.r(C)p.r(U)p.r(C)p.r(C)p.r(C)p.r(G)p.r(U)p.m(U)p.r(A)p.r(G)p.r(A)p.r(C)p.r(A)p.r(C)p.r(U)p.r(C)p.r(G)p.r(T)p.r(T)}$$$RNA1{StrandType:ss}|RNA2{StrandType:as}$	68%
RNA1{m(A)p.r(U)p.m(C)p.r(A)p.m(G)p.r(A)p.m(G)p.r(G)p.m(G)p.r(A)p.m(G)p.r(G)p.m(U)p.r(C)p.m(U)p.r(U)p.m(A)p.r(G)p.m(A)p.r(T)p.r(T)}|RNA2{r(U)p.r(C)p.r(U)p.r(A)p.r(A)p.m(G)p.r(A)p.r(C)p.r(C)p.r(U)p.r(C)p.r(C)p.r(C)p.r(U)p.m(C)p.r(U)p.m(G)p.r(A)p.m(U)p.r(T)p.r(T)}$$$RNA1{StrandType:ss}|RNA2{StrandType:as}$	19%
RNA1{r(C)p.r(G)p.r(U)p.r(A)p.r(C)p.r(G)p.r(C)p.r(G)p.r(G)p.r(A)p.r(A)p.r(U)p.r(A)p.r(C)p.r(U)p.r(U)p.r(C)p.r(G)p.r(A)p.r(T)p.r(T)}|RNA2{r(U)p.r(C)p.r(G)p.r(A)p.r(A)p.r(G)p.r(U)p.r(A)p.r(U)p.r(U)p.r(C)p.r(C)p.r(G)p.[s4r](C)p.[s4r](G)p.[s4r](U)p.[s4r](A)p.[s4r](C)p.[s4r](G)p.r(T)p.r(T)}$$$RNA1{StrandType:ss}|RNA2{StrandType:as}$	72.2%
RNA1{m(A)p.m(A)p.m(G)p.m(G)p.m(A)p.m(G)p.m(A)p.m(U)p.m(C)p.m(A)p.m(A)p.m(C)p.m(A)p.m(U)p.m(U)p.m(U)p.m(U)p.m(C)p.m(A)p.r(T)p.r(T)}|RNA2{m(U)p.r(G)p.r(A)p.r(A)p.r(A)p.r(A)p.m(U)p.r(G)p.r(U)p.r(U)p.r(G)p.r(A)p.m(U)p.m(C)p.m(U)p.m(C)p.m(C)p.m(U)p.m(U)p.r(T)p.r(T)}$$$RNA1{StrandType:ss}|RNA2{StrandType:as}$	29%
RNA1{r(C)p.r(C)p.r(G)p.r(C)p.r(C)p.r(C)p.r(G)p.r(G)p.r(C)p.r(G)p.r(G)p.r(C)p.m(G)p.r(C)p.r(C)p.r(U)p.r(U)p.m(U)p.m(A)p.r(T)p.r(T)}|RNA2{m(U)p.m(A)p.r(A)p.r(A)p.r(G)p.r(G)p.r(C)p.r(G)p.r(C)p.r(C)p.r(G)p.r(C)p.r(C)p.r(G)p.r(G)p.r(G)p.r(C)p.r(G)p.r(G)p.r(T)p.r(T)}$$$RNA1{StrandType:ss}|RNA2{StrandType:as}$	85%
RNA1{r(A)p.r(G)p.r(G)p.r(A)p.r(G)p.r(A)p.r(C)p.r(C)p.r(G)p.[fl2r](U)p.r(G)p.r(A)p.[fl2r](C)p.r(A)p.r(U)p.r(U)p.r(U)p.r(C)p.r(G)p.r(T)p.r(T)}|RNA2{r(C)p.r(G)p.r(A)p.r(A)p.r(A)p.[fl2r](U)p.r(G)p.r(U)p.r(C)p.[fl2r](A)p.r(C)p.r(G)p.r(G)p.r(U)p.r(C)p.r(U)p.r(C)p.r(C)p.r(U)p.r(T)p.r(T)}$$$RNA1{StrandType:ss}|RNA2{StrandType:as}$	69%
RNA1{[s4r](C)p.r(G)p.[s4r](U)p.r(A)p.[s4r](C)p.r(G)p.[s4r](C)p.r(G)p.r(G)p.r(A)p.r(A)p.[s4r](U)p.r(A)p.[s4r](C)p.[s4r](U)p.[s4r](U)p.[s4r](C)p.r(G)p.r(A)p.r(T)p.r(T)}|RNA2{r(U)p.r(C)p.r(G)p.r(A)p.r(A)p.r(G)p.r(U)p.r(A)p.r(U)p.r(U)p.r(C)p.r(C)p.r(G)p.r(C)p.r(G)p.r(U)p.r(A)p.r(C)p.r(G)p.r(T)p.r(T)}$$$RNA1{StrandType:ss}|RNA2{StrandType:as}$	92.9%
RNA1{r(G)p.r(G)p.r(A)p.r(C)p.r(A)p.r(U)p.r(U)p.r(C)p.r(A)p.r(G)p.r(A)p.r(A)p.r(C)p.r(A)p.r(A)p.r(G)p.r(A)p.r(A)p.r(A)p.[una](U)p.[una](U)}|RNA2{[una](U)p.r(U)p.r(U)p.r(C)p.r(U)p.r(U)p.r(G)p.r(U)p.r(U)p.r(C)p.r(U)p.r(G)p.r(A)p.r(A)p.r(U)p.r(G)p.r(U)p.r(C)p.r(C)p.[una](U)p.[una](U)}$$$RNA1{StrandType:ss}|RNA2{StrandType:as}$	75%
